#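 Step 1: Grow cells in 96-well plates. Step 2: Expose to compound for 48 hours at 5 concentrations. Step 3: Interpolate endpoints linearly; if unreached, use highest concentration. GI50: concentration for 50% inhibition of growth.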 Calls of active or inactive are those of the source. Cut-off read from the data, not from the text of the source: active = GI50 up to about 1.1 µM and inactive = higher.
# Experiments:
# Assay in all cases: NCI-60 cell line screen, 48 h
# 786-0 = tested on: 786-0
# A498 = tested on: A498
# A549 = tested on: A549
# ACHN = tested on: ACHN
# BT-549 = tested on: BT-549
# CAKI-1 = tested on: CAKI-1
# COLO 205 = tested on: COLO 205
# DU-145 = tested on: DU-145
# EKVX = tested on: EKVX
# HCT-116 = tested on: HCT-116
# HCT-15 = tested on: HCT-15
# HL-60 = tested on: HL-60
# HOP-62 = tested on: HOP-62
# HOP-92 = tested on: HOP-92
# HT-29 = tested on: HT-29
# Hs-578T = tested on: Hs-578T
# IGROV-1 = tested on: IGROV-1
# K562 = tested on: K562
# KM12 = tested on: KM12
# LOX IMVI = tested on: LOX IMVI
# M14 = tested on: M14
# MCF7 = tested on: MCF7
# MDA-MB-231 = tested on: MDA-MB-231
# MDA-MB-435 = tested on: MDA-MB-435
# MDA-N = tested on: MDA-N
# MOLT-4 = tested on: MOLT-4
# Malme-3M = tested on: Malme-3M
# NCI-H226 = tested on: NCI-H226
# NCI-H23 = tested on: NCI-H23
# NCI-H460 = tested on: NCI-H460
# NCI-H522 = tested on: NCI-H522
# NCI/ADR-RES = tested on: NCI/ADR-RES
# OVCAR-3 = tested on: OVCAR-3
# OVCAR-4 = tested on: OVCAR-4
# OVCAR-5 = tested on: OVCAR-5
# OVCAR-8 = tested on: OVCAR-8
# PC-3 = tested on: PC-3
# RPMI-8226 = tested on: RPMI-8226
# RXF 393 = tested on: RXF 393
# SF-268 = tested on: SF-268
# SF-295 = tested on: SF-295
# SF-539 = tested on: SF-539
# SK-MEL-28 = tested on: SK-MEL-28
# SK-MEL-2 = tested on: SK-MEL-2
# SK-MEL-5 = tested on: SK-MEL-5
# SK-OV-3 = tested on: SK-OV-3
# SN12C = tested on: SN12C
# SNB-19 = tested on: SNB-19
# SNB-75 = tested on: SNB-75
# SR = tested on: SR
# SW-620 = tested on: SW-620
# T47D = tested on: T47D
# TK-10 = tested on: TK-10
# U-251 = tested on: U-251
# UACC-62 = tested on: UACC-62
# UO-31 = tested on: UO-31
# CCRF-CEM = tested on: CCRF-CEM
# HCC 2998 = tested on: HCC 2998
# UACC-257 = tested on: UACC-257
smiles,measurement,setting,value
Cc1ccc(C2(C)CC/C(=N/N=C3/CCC(C)(c4ccc(C)c(C)c4)c4cc(C)c(C)cc43)c3cc(C)c(C)cc32)cc1C (centres undefined),GI50,786-0,> 100 µM (inactive)
same,GI50,A498,> 100 µM (inactive)
same,GI50,A549,> 100 µM (inactive)
same,GI50,ACHN,> 100 µM (inactive)
same,GI50,BT-549,> 100 µM (inactive)
same,GI50,CAKI-1,> 100 µM (inactive)
same,GI50,COLO 205,> 100 µM (inactive)
same,GI50,DU-145,> 100 µM (inactive)
same,GI50,EKVX,> 100 µM (inactive)
same,GI50,HCT-116,> 100 µM (inactive)
same,GI50,HCT-15,> 100 µM
same,GI50,HL-60,> 100 µM (inactive)
same,GI50,HOP-62,> 100 µM (inactive)
same,GI50,HOP-92,> 100 µM (inactive)
same,GI50,HT-29,> 100 µM (inactive)
same,GI50,Hs-578T,> 100 µM (inactive)
same,GI50,IGROV-1,> 100 µM (inactive)
same,GI50,K562,> 100 µM (inactive)
same,GI50,KM12,> 100 µM (inactive)
same,GI50,LOX IMVI,> 100 µM (inactive)
same,GI50,M14,> 100 µM (inactive)
same,GI50,MCF7,> 100 µM (inactive)
same,GI50,MDA-MB-231,> 100 µM (inactive)
same,GI50,MDA-MB-435,> 100 µM (inactive)
same,GI50,MDA-N,> 100 µM (inactive)
same,GI50,MOLT-4,> 100 µM (inactive)
same,GI50,Malme-3M,> 100 µM (inactive)
same,GI50,NCI-H226,> 100 µM (inactive)
same,GI50,NCI-H23,> 100 µM (inactive)
same,GI50,NCI-H460,> 100 µM (inactive)
same,GI50,NCI-H522,> 100 µM (inactive)
same,GI50,NCI/ADR-RES,> 100 µM (inactive)
same,GI50,OVCAR-3,> 100 µM (inactive)
same,GI50,OVCAR-4,> 100 µM (inactive)
same,GI50,OVCAR-5,> 100 µM (inactive)
same,GI50,OVCAR-8,> 100 µM (inactive)
same,GI50,PC-3,> 100 µM (inactive)
same,GI50,RPMI-8226,> 100 µM (inactive)
same,GI50,RXF 393,> 100 µM (inactive)
same,GI50,SF-268,> 100 µM (inactive)
same,GI50,SF-295,> 100 µM (inactive)
same,GI50,SF-539,> 100 µM (inactive)
same,GI50,SK-MEL-28,> 100 µM (inactive)
same,GI50,SK-MEL-2,> 100 µM (inactive)
same,GI50,SK-MEL-5,> 100 µM (inactive)
same,GI50,SK-OV-3,> 100 µM (inactive)
same,GI50,SN12C,> 100 µM (inactive)
same,GI50,SNB-19,> 100 µM (inactive)
same,GI50,SNB-75,> 100 µM (inactive)
same,GI50,SR,> 100 µM (inactive)
same,GI50,SW-620,> 100 µM (inactive)
same,GI50,T47D,> 100 µM (inactive)
same,GI50,TK-10,> 100 µM (inactive)
same,GI50,U-251,> 100 µM (inactive)
same,GI50,UACC-62,> 100 µM (inactive)
same,GI50,UO-31,> 100 µM (inactive)
CCCCCCCC1C(C)c2c([nH]c3ccccc23)C2C(=O)N(c3ccc(OC)cc3)C(=O)C21 (centres undefined),GI50,786-0,1.66 µM (inactive)
same,GI50,A498,2.67 µM (inactive)
same,GI50,A549,2.33 µM (inactive)
same,GI50,ACHN,2.66 µM (inactive)
same,GI50,BT-549,2.11 µM (inactive)
same,GI50,CAKI-1,3.26 µM (inactive)
same,GI50,CCRF-CEM,2.61 µM (inactive)
same,GI50,COLO 205,3.78 µM (inactive)
same,GI50,DU-145,> 8.3 µM (inactive)
same,GI50,EKVX,3.97 µM (inactive)
same,GI50,HCC 2998,7.6 µM (inactive)
same,GI50,HCT-116,1.79 µM (inactive)
same,GI50,HCT-15,> 7.76 µM
same,GI50,HL-60,1.95 µM (inactive)
same,GI50,HOP-62,2.7 µM (inactive)
same,GI50,HOP-92,> 10 µM (inactive)
same,GI50,HT-29,2.63 µM (inactive)
same,GI50,Hs-578T,2 µM (inactive)
same,GI50,IGROV-1,> 5.89 µM (inactive)
same,GI50,K562,3.11 µM (inactive)
same,GI50,KM12,6.34 µM (inactive)
same,GI50,M14,2.74 µM (inactive)
same,GI50,MCF7,4.6 µM (inactive)
same,GI50,MDA-MB-231,3.82 µM (inactive)
same,GI50,MDA-MB-435,3.33 µM (inactive)
same,GI50,MDA-N,4.22 µM (inactive)
same,GI50,MOLT-4,3.2 µM (inactive)
same,GI50,Malme-3M,> 4.86 µM (inactive)
same,GI50,NCI-H226,3.1 µM (inactive)
same,GI50,NCI-H23,2.39 µM (inactive)
same,GI50,NCI-H460,1.87 µM (inactive)
same,GI50,NCI-H522,4.48 µM (inactive)
same,GI50,NCI/ADR-RES,1.7 µM (inactive)
same,GI50,OVCAR-3,2.48 µM (inactive)
same,GI50,OVCAR-4,2.9 µM (inactive)
same,GI50,OVCAR-5,> 10 µM (inactive)
same,GI50,OVCAR-8,2.52 µM (inactive)
same,GI50,PC-3,4.68 µM (inactive)
same,GI50,RPMI-8226,> 5.73 µM (inactive)
same,GI50,RXF 393,2.79 µM (inactive)
same,GI50,SF-268,3.72 µM (inactive)
same,GI50,SF-295,2.58 µM (inactive)
same,GI50,SF-539,2.69 µM (inactive)
same,GI50,SK-MEL-28,5.48 µM (inactive)
same,GI50,SK-MEL-2,> 6.59 µM (inactive)
same,GI50,SK-MEL-5,> 6.22 µM (inactive)
same,GI50,SK-OV-3,4.68 µM (inactive)
same,GI50,SN12C,2.59 µM (inactive)
same,GI50,SNB-19,3.31 µM (inactive)
same,GI50,SNB-75,1.95 µM (inactive)
same,GI50,SR,2.84 µM (inactive)
same,GI50,SW-620,3.02 µM (inactive)
same,GI50,T47D,3.79 µM (inactive)
same,GI50,TK-10,2.38 µM (inactive)
same,GI50,U-251,1.92 µM (inactive)
same,GI50,UACC-257,2.64 µM (inactive)
same,GI50,UACC-62,4.24 µM (inactive)
same,GI50,UO-31,2.51 µM (inactive)

# — ChEMBL document CHEMBL1201862, “PubChem BioAssay data set” (2004)
